Measurements from PubChem BioAssay AID1963971 (Molecular Pharmacology Branch, DTP, NCI, 2024).

Test system: 953936-095-R-J2-PDC spheroids with HUVEC/MSC, viability
Assay: Anticancer human tumor 953936-095-R-J2-PDC patient-derived cervical squamous cell carcinoma cell line growth inhibition [PI3K]
Conditions: for IC50: curve of first compound; for viability, T/C: stronger effect = lower value
Description: Combinatorial screen of targeted agents with the PI3K inhibitors inavolisib, alpelisib, duvelisib, and copanlisib in multi-cell type tumor spheroids
A high-throughput screen of multi-cell type tumor spheroids was designed to identify active combinations of targeted small molecules and PI3K pathway inhibitors. Complex spheroids include a stromal component modeled by human endothelial cells (HUVEC) and fibroblasts modeled by human mesenchymal stem cells (MSCs). The concentration ranges selected for each drug and investigational agent were based upon clinically achievable concentrations if the clinical Cmax of the agent was known.
Compounds. The drugs and investigational agents: inavolisib (NSC800729), alpelisib (NSC765974), duvelisib (NSC772469), copanlisib (NSC816437), ipatasertib (NSC767898), afuresertib (NSC778305), talazoparib (NSC767125), sapanisertib (NSC764658), selumetinib (NSC741078), tovorafenib (DAY101, NSC766906), vemurafenib (NSC761431), ravoxertinib (NSC781343), sotorasib (NSC818433), MRTX1133 (NSC 836407), abemaciclib (NSC 768073), palbociclib (NSC758247), venetoclax (NSC 766270), SY5609 (NSC837396), enzalutamide (NSC755605), and darolutamide (NSC825331), were obtained from the National Cancer Institute (NCI) Developmental Therapeutics Program Chemical Repository. The FDA-approved anticancer drug set is available from the NCI Developmental Therapeutics Program. […] The stock solutions were prepared in dimethyl sulfoxide (DMSO, Sigma-Aldrich, St. Louis, MO, cat. D2650) at 800-fold the tested concentration and stored at -70 degrees C prior to their use. All drugs and investigational agents were tested over a range starting from a high concentration at or near the clinical Cmax and decreasing in half-log increments. If the clinical Cmax for an agent had not been determined, the highest concentration tested was 10 microM.
Cell Culture. All cells were maintained in an incubator at 37 degrees C and 5% CO2 with 95% humidity. The PDC lines were cultured according to standard operating procedures established by the NCI PDMR (https://pdmr.cancer.gov/sops/default.htm). All PDCs were thawed and cultured in Matrigel-coated flasks prepared with a working solution of 1X Ham's F-12 nutrient mix, without supplementation (Invitrogen, Waltham, MA, cat. 11765054), 100 U/mL penicillin-streptomycin (Invitrogen, cat. 15140122), and 2.5% Matrigel (Corning Inc., Corning, NY, cat. 354248) for the first three passages. The 354836-022-R-J1-PDC, 475296-252-R-J1-PDC, and 997726-040-R-J2-PDC lines were cultured in 6A media, which includes advanced DMEM/F-12 (Thermo Fisher Scientific, cat. 12634028), 10 mM HEPES (Thermo Fisher Scientific, cat. 15630080), 1X GlutaMAX supplement (Thermo Fisher Scientific, cat. 35050061), 0.1 mg/mL primocin (InvivoGen, San Diego, CA, cat. ant-pm-2), 10% defined fetal bovine serum, heat inactivated (HyClone Laboratories Inc., Logan, UT, cat. SH30070.03HI), 50% L-WRN conditioned media (ATCC, cat. CRL-3276), 1.25 mM N-Acetyl-L-cysteine (Sigma-Aldrich, cat. A9165), 10 mM nicotinamide (Sigma-Aldrich, cat. N0636), 1X B-27 supplement (Thermo Fisher Scientific, cat. 17504044), 1X N-2 supplement (Thermo Fisher Scientific, cat. 17502048), and 10 microM Y-27632 dihydrochloride (Tocris Bioscience, Bristol, United Kingdom, cat. 1254). The 624824-186-R-J2-PDC line was cultured in 6C/Colon 1B media, which includes all 6A media components plus 50 ng/mL human EGF recombinant protein (Thermo Fisher Scientific, cat. PHG0311). […]

[1] = second compound 0.00316 µM, first compound 0.0316 µM
[2] = second compound 0.00316 µM, first compound 0.1 µM
[3] = second compound 0.01 µM, first compound 0.0316 µM
[4] = second compound 0.01 µM, first compound 0.1 µM
[5] = second compound 0.0316 µM, first compound 0.0316 µM
[6] = second compound 0.0316 µM, first compound 0.1 µM
[7] = second compound 0.1 µM, first compound 0.0316 µM
[8] = second compound 0.1 µM, first compound 0.1 µM
[9] = second compound 0.316 µM, first compound 0.0316 µM
[10] = second compound 0.316 µM, first compound 0.1 µM
[11] = second compound 1 µM, first compound 0.0316 µM
[12] = second compound 1 µM, first compound 0.1 µM
[13] = second compound 0.00316 µM, first compound 0.316 µM
[14] = second compound 0.00316 µM, first compound 1 µM
[15] = second compound 0.00316 µM, first compound 3.16 µM
[16] = second compound 0.00316 µM, first compound 10 µM
[17] = second compound 0.01 µM, first compound 0.316 µM
[18] = second compound 0.01 µM, first compound 1 µM
[19] = second compound 0.01 µM, first compound 3.16 µM
[20] = second compound 0.01 µM, first compound 10 µM
[21] = second compound 0.0316 µM, first compound 0.316 µM
[22] = second compound 0.0316 µM, first compound 1 µM
[23] = second compound 0.0316 µM, first compound 3.16 µM
[24] = second compound 0.0316 µM, first compound 10 µM
[25] = second compound 0.1 µM, first compound 0.316 µM
[26] = second compound 0.1 µM, first compound 1 µM
[27] = second compound 0.1 µM, first compound 3.16 µM
[28] = second compound 0.1 µM, first compound 10 µM
[29] = second compound 0.316 µM, first compound 0.316 µM
[30] = second compound 0.316 µM, first compound 1 µM
[31] = second compound 0.316 µM, first compound 3.16 µM
[32] = second compound 0.316 µM, first compound 10 µM
[33] = second compound 1 µM, first compound 0.316 µM
[34] = second compound 1 µM, first compound 1 µM
[35] = second compound 1 µM, first compound 3.16 µM
[36] = second compound 1 µM, first compound 10 µM
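Also: spheroids exposed to compounds for seven days before read-out.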

In the case of `CC(C)n1nc(-c2ccc3oc(N)nc3c2)c2c(N)ncnc21` + CC(Nc1ccc2c(c1)OCCn1cc(N3C(=O)OCC3C(F)F)nc1-2)C(N)=O, the IC50 (second compound 0.00316 µM) is reported as 27.5 nM, the IC50 (second compound 0.01 µM) is reported as 23.1 nM and the IC50 (second compound 0.0316 µM) is reported as 14.2 nM. The IC50 (second compound 0.1 µM) was 1.4 nM, the IC50 (second compound 0.316 µM) was < 0.316 nM and the IC50 (second compound 1 µM) was < 0.316 nM. The viability, T/C (second compound 0.00316 µM, first compound 0.000316 µM) was 92.9%, the viability, T/C (second compound 0.00316 µM, first compound 0.001 µM) was 93.3% and the viability, T/C (second compound 0.00316 µM, first compound 0.00316 µM) was 81.3%. For the same compound, the viability, T/C (second compound 0.00316 µM, first compound 0.01 µM) was 73.7%, the viability, T/C [1] was 46.2% and the viability, T/C [2] was 15.5%. The viability, T/C (second compound 0.01 µM, first compound 0.000316 µM) was 87.1%, the viability, T/C (second compound 0.01 µM, first compound 0.001 µM) was 88.8% and the viability, T/C (second compound 0.01 µM, first compound 0.00316 µM) was 79.1%. For the same compound, the viability, T/C (second compound 0.01 µM, first compound 0.01 µM) was 67.6%, the viability, T/C [3] was 43.6% and the viability, T/C [4] was 15.2%. It also gave a viability, T/C (second compound 0.0316 µM, first compound 0.000316 µM) of 73%, a viability, T/C (second compound 0.0316 µM, first compound 0.001 µM) of 71.9% and a viability, T/C (second compound 0.0316 µM, first compound 0.00316 µM) of 73.4%. It also gave a viability, T/C (second compound 0.0316 µM, first compound 0.01 µM) of 53.5%, a viability, T/C [5] of 35.7% and a viability, T/C [6] of 12.1%. For the same compound, the viability, T/C (second compound 0.1 µM, first compound 0.000316 µM) was 57.7%, the viability, T/C (second compound 0.1 µM, first compound 0.001 µM) was 52.5% and the viability, T/C (second compound 0.1 µM, first compound 0.00316 µM) was 44.3%. It also gave a viability, T/C (second compound 0.1 µM, first compound 0.01 µM) of 34%, a viability, T/C [7] of 21.6% and a viability, T/C [8] of 7.99%. The viability, T/C (second compound 0.316 µM, first compound 0.000316 µM) was 34.1%, the viability, T/C (second compound 0.316 µM, first compound 0.001 µM) was 31.2% and the viability, T/C (second compound 0.316 µM, first compound 0.00316 µM) was 28.5%. The viability, T/C (second compound 0.316 µM, first compound 0.01 µM) was 22.7%, the viability, T/C [9] was 13.1% and the viability, T/C [10] was 6.47%. It also gave a viability, T/C (second compound 1 µM, first compound 0.000316 µM) of 20.8%, a viability, T/C (second compound 1 µM, first compound 0.001 µM) of 21.7% and a viability, T/C (second compound 1 µM, first compound 0.00316 µM) of 18.3%. For the same compound, the viability, T/C (second compound 1 µM, first compound 0.01 µM) was 16.3%, the viability, T/C [11] was 9.69% and the viability, T/C [12] was 5.32%.

In the case of `CC1(C)CCC(CN2CCN(c3ccc(C(=O)NS(=O)(=O)c4ccc(NCC5CCOCC5)c([N+](=O)[O-])c4)c(Oc4cnc5[nH]ccc5c4)c3)CC2)=C(c2ccc(Cl)cc2)C1` + CC(Nc1ccc2c(c1)OCCn1cc(N3C(=O)OCC3C(F)F)nc1-2)C(N)=O, the IC50 (second compound 0.00316 µM) is reported as 6920 nM, the IC50 (second compound 0.01 µM) is reported as 8420 nM and the IC50 (second compound 0.0316 µM) is reported as 8120 nM. The IC50 (second compound 0.1 µM) was > 10000 nM, the IC50 (second compound 0.316 µM) was < 31.6 nM and the IC50 (second compound 1 µM) was < 31.6 nM. For the same compound, the viability, T/C [1] was 88.4%, the viability, T/C [2] was 89.8% and the viability, T/C [13] was 90.4%. For the same compound, the viability, T/C [14] was 100%, the viability, T/C [15] was 142% and the viability, T/C [16] was 25.5%. The viability, T/C [3] was 90.2%, the viability, T/C [4] was 88.9% and the viability, T/C [17] was 92.3%. It also gave a viability, T/C [18] of 93.6%, a viability, T/C [19] of 115% and a viability, T/C [20] of 41.9%. For the same compound, the viability, T/C [5] was 77%, the viability, T/C [6] was 74.6% and the viability, T/C [21] was 75.8%. It also gave a viability, T/C [22] of 75.8%, a viability, T/C [23] of 85% and a viability, T/C [24] of 44%. The viability, T/C [7] was 57.7%, the viability, T/C [8] was 53% and the viability, T/C [25] was 53.1%. It also gave a viability, T/C [26] of 59.4%, a viability, T/C [27] of 59.5% and a viability, T/C [28] of 48.3%. It also gave a viability, T/C [9] of 35.7%, a viability, T/C [10] of 36% and a viability, T/C [29] of 33.5%. The viability, T/C [30] was 31.8%, the viability, T/C [31] was 32.5% and the viability, T/C [32] was 36.9%. It also gave a viability, T/C [11] of 22.3%, a viability, T/C [12] of 24.4% and a viability, T/C [33] of 21.2%. It also gave a viability, T/C [34] of 22.1%, a viability, T/C [35] of 22.1% and a viability, T/C [36] of 21.7%.

With `C[C@@H](NC(=O)c1ncnc(N)c1Cl)c1ncc(C(=O)Nc2cc(C(F)(F)F)c(Cl)cn2)s1` + CC(Nc1ccc2c(c1)OCCn1cc(N3C(=O)OCC3C(F)F)nc1-2)C(N)=O the IC50 (second compound 0.00316 µM) was > 10000 nM, the IC50 (second compound 0.01 µM) was > 10000 nM and the IC50 (second compound 0.0316 µM) was > 10000 nM. The IC50 (second compound 0.1 µM) was > 10000 nM, the IC50 (second compound 0.316 µM) was < 31.6 nM and the IC50 (second compound 1 µM) was < 31.6 nM. For the same compound, the viability, T/C [1] was 98.6%, the viability, T/C [2] was 103% and the viability, T/C [13] was 101%. The viability, T/C [14] was 104%, the viability, T/C [15] was 113% and the viability, T/C [16] was 97.7%. It also gave a viability, T/C [3] of 97.2%, a viability, T/C [4] of 89.3% and a viability, T/C [17] of 102%. For the same compound, the viability, T/C [18] was 99.5%, the viability, T/C [19] was 107% and the viability, T/C [20] was 121%. It also gave a viability, T/C [5] of 78.6%, a viability, T/C [6] of 74.3% and a viability, T/C [21] of 78.2%. For the same compound, the viability, T/C [22] was 90.8%, the viability, T/C [23] was 93.9% and the viability, T/C [24] was 85.2%. It also gave a viability, T/C [7] of 55.6%, a viability, T/C [8] of 56.5% and a viability, T/C [25] of 61.2%. It also gave a viability, T/C [26] of 61.5%, a viability, T/C [27] of 67.8% and a viability, T/C [28] of 53.2%. It also gave a viability, T/C [9] of 37.2%, a viability, T/C [10] of 34.8% and a viability, T/C [29] of 38.3%. The viability, T/C [30] was 39.8%, the viability, T/C [31] was 40.8% and the viability, T/C [32] was 41.9%. The viability, T/C [11] was 23%, the viability, T/C [12] was 26.8% and the viability, T/C [33] was 25.3%. For the same compound, the viability, T/C [34] was 27.2%, the viability, T/C [35] was 27.7% and the viability, T/C [36] was 24.8%.
